Results from patent EP2508186A1, “Phenoxazinones or phenothiazones as inhibitors of amyloid formation” (Max-Delbrück-Centrum für Molekulare Medizin, priority 2011, dated 2012).

Assays:
Aβ42 [1] = target: T1, Aβ42 (Homo sapiens, UniProt P05067); assay: SDS-PAGE (silver staining / immunoblotting) of Aβ42 aggregation products; format: biochemical
T1 construct: the amyloid-β 1-42 (Aβ42) peptide
Method: 2.2.3. O4 promotes the formation of SDS-stable, protease-resistant protein aggregates. To investigate whether 04 treatment influences the stability of amyloid structures, we analyzed compound-treated Aβ42 aggregation reactions after 48 h with SDS-PAGE and silver staining (Fig. 3a). In the absence of 04, aggregation products resolved to monomers (-4 kDa), small oligomers (-10-12 and 14-16 kDa), medium-size oligomers (-100-150 kDa) and large aggregates (>250 kDa) in SDS gels, supporting previously published studies that Aβ42 monomers in vitro assemble into a heterogenous mixture of low and high molecular weight aggregate species (Bitan, 2003). However, in the presence of 04 an altered distribution of SDS-stable Aβ42 aggregate species was observed.
The effect of 04 on early aggregate species was also visible when treated and untreated Aβ42 preparations containing mainly small oligomers and protofibrils were analyzed after 24 h by SDS-PAGE and immunoblotting.
To investigate whether 04 treatment influences Aβ42 aggregate formation cell culture media were also analyzed by SDS-PAGE and silver staining (Fig. 9b). In-untreated samples, a relatively large amount of Aβ42 monomers (-4 kDa) and small oligomers (-12 kDa) was detected, while in 04 treated samples the concentration of these Aβ42 species was diminished.

Aβ42 [2] = target: T1, Aβ42; assay: Circular dichroism (CD) spectroscopy of Aβ42 β-sheet formation; format: biochemical; conditions: Aβ42 15 µM, phosphate buffer
Excerpt: Therefore, we investigated whether 04 treatment influences the structure of Aβ42 amyloid fibrils using circular dichroism (CD) spectroscopy (Ehrnhoefer, 2008).
Next, the conversion of unstructured Aβ42 monomers into β-sheet-rich early aggregates was investigated. The change in CD signal at 218 nm over the course of 3,000 s was monitored for 04-treated and untreated Aβ42 peptides.
A monoexponential data fit yielded a time constant of τ = 150 ± 40 s for O4-treated samples, while a time constant of τ = 350 ± 30 s was obtained for untreated samples.

Aβ42 [3] = target: T1, Aβ42; assay: Membrane filter retardation assay (FRA) of Aβ42 aggregation; format: biochemical
Method: 2.1.1. Protein aggregation. For aggregation reactions, Aβ42 stock solution (1 mM in DMSO) was diluted in phosphate buffer (100 mM sodium phosphate, 10 mM NaCl, pH 7.4) to 15 µM and incubated in 1.5 ml Eppendorf tubes (Eppendorf, Germany) at 37°C. Generation of soluble Aβ42 oligomers was performed as described (Lambert, 1998). Aβ42 DMSO stock solutions were diluted in Ham's F12 medium without phenol red (Biosource) at a final peptide concentration of 100 µM, with or without test compounds. After brief vortexing, samples were incubated at 4-6°C for 24 h. […]
2.1.2. […] Aggregates retained on the filter membrane were detected using the 6E10 antibody (1 : 5.000) (Sigma, Deisenhofen, Germany), and secondary antibodies conjugated to either horseradish peroxidase or alkaline phosphatase (Promega, Germany). […] After 30 min incubation at 37°C with proteinase K, samples were denatured and analyzed by FRA.
2.2.1 Identification of small molecules that stimulate Aβ42 aggregation. In order to find chemical compounds that promote Aβ42 amyloidogenesis, a membrane filter retardation assay (FRA) was established that allows the identification of large, insoluble protein aggregates, while monomers and small, soluble oligomers are not detected (Fig. 1). […]

[4] = system: SH-SY5Y neuroblastoma cells; assay: MTT assay of Aβ42 toxicity; format: cell-based; conditions: Aβ42 5 µM, different concentrations of 04, 48 h; Aβ42 alone ∼50% inhibition
Method: 2.2.8. 04-mediated acceleration of amyloidogenesis reduces Aβ42 toxicity in cell-based assays and brain slices. To study whether O4-mediated conversion of aggregation intermediates into stable amyloid fibrils influences Aβ42 toxicity, SH-SY5Y neuroblastoma cells were incubated for 48 h with soluble Aβ42 peptides and different concentrations of 04. Viability of cells was examined using a 3-(4,5-dimethylthiazol-2yl)-2,5-diphenyltetrazolium bromide (MTT) assay (Hansen, 1989).

Aβ42 [5] = target: T1, Aβ42; assay: Thioflavin T (ThT) seeding assay with 04-generated Aβ42 fibrils; format: biochemical; conditions: fibrils produced with equimolar or 5-fold excess 04, sonicated seeds 3 % v/v added to Aβ42 15 µM monomers
Excerpt: We also investigated whether 04-generated Aβ42 fibrils are indeed seeding-competent structures. Amyloid fibrils were produced in vitro in the presence and absence of 04 and added as seeds to an excess of unpolymerized Aβ42 monomers. The formation of β-sheet-rich amyloid fibrils was then monitored over time using a Thioflavin T (ThT) dye binding assay (LeVine, 1999). […] Thus, the β-sheet-rich Aβ42 fibrils produced in the presence of 04 are seeding-competent structures that efficiently promote amyloid fibrillogenesis.

[6] = system: hippocampal rat brain slices; assay: Hippocampal long-term potentiation (LTP) in brain slices, CA1 area; conditions: Aβ42 monomers and small oligomers added to slices, with 04; LTP evoked by high-frequency stimulation
Method: Finally, we investigated whether 04 treatment influences Aβ42-mediated impairment of hippocampal long-term potentiation (LTP) in rat brain slices (Wang, 2004; Walsh, 2002). A preparation of Aβ42 peptides containing monomers and small oligomers was added to hippocampal brain slices and LTP was measured in the CA1 area.

primary cortical neurons = assay: Aβ42 toxicity in primary cortical neurons; format: cell-based; conditions: after addition of 04 to neuronal cultures

T1 sequence (P05067 672-713 limits assumed): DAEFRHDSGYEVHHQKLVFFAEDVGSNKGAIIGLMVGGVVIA

Compound: O=c1cc2oc3cc(O)c(-c4ccc(O)cc4O)cc3nc-2cc1-c1ccc(O)cc1O [Compound 04, 2,8-bis-(2,4-dihydroxyphenyl)-7-hydroxy-phenoxazin-3-one]
- distribution of SDS-stable Aβ42 aggregate species (SDS-PAGE, silver staining) (Aβ42 [1]; Aβ42 15 µM, 04 1.5-150 µM, 48 h, 37°C, cell-free): the relative amount of medium-size, SDS-stable oligomers and large aggregates was increased, while the amount of monomers and small oligomers was decreased
- Aβ42 monomers and small oligomers in cell culture media (SDS-PAGE, silver staining) (Aβ42 [1]; SH-SY5Y culture media, Aβ42 5 µM, 04 5 µM or 25 µM, 48 h): diminished
- assembly of higher molecular weight Aβ42 aggregates (SDS-PAGE, immunoblotting) (Aβ42 [1]; preformed Aβ42 oligomers 110 µM, 04 30, 100 and 300 µM, 24 h): stimulates the assembly of SDS-stable, higher molecular weight Aβ42 aggregates in a concentration-dependent manner
- time constant τ of β-sheet formation (ellipticity at 218 nm) (Aβ42 [2]; 04 75 µM, 37°C, monoexponential decay fit, control 350 ± 30 nm): 150 ± 40 s
- time constant τ of β-sheet formation (CD signal at 218 nm) (Aβ42 [2]; 04 75 µM, 37°C, monoexponential fit, untreated 350 ± 30 s): 150 ± 40 s
- CD spectra of Aβ42 fibrils (Aβ42 [2]; equimolar 04, 37°C): CD spectra characteristic of β-sheet-rich amyloid structures
- formation of SDS-stable insoluble Aβ42 aggregates (Aβ42 [3]; Aβ42 15 µM, equimolar or 5-fold molar excess of compound, detection with 6E10 antibody): promotes spontaneous assembly of Aβ42 insoluble aggregates in a concentration-dependent manner
- proteinase K resistance of Aβ42 aggregates (Aβ42 [3]; aggregates generated 4 and 7 d at 37°C with or without 04 (15 µM), proteinase K 10-200 µg/ml, 30 min at 37°C): more proteinase K resistant than untreated aggregates
- Aβ42-caused inhibition of MTT reduction [4]: suppressed in a concentration-dependent manner
- seeding competence of 04-generated Aβ42 fibrils (ThT fluorescence) (Aβ42 [5]): accelerate amyloid polymerization
- Aβ42 oligomer block of LTP [6]: suppressed
- Aβ42-mediated cellular toxicity (primary cortical neurons): significantly reduced
